Columns and labels:
PXR = target: T1, PXR (Homo sapiens, UniProt O75469); test: Competitive radioligand binding assay ([3H]SR12813); design: purchased Eurofins Cerep (contract assay service); conditions: 7 concentrations 0.01-10 µM, duplicate; read-out: IC50, inhibition of binding of 3H-labeled SR12813 to PXR
T1 sequence (O75469 1-434): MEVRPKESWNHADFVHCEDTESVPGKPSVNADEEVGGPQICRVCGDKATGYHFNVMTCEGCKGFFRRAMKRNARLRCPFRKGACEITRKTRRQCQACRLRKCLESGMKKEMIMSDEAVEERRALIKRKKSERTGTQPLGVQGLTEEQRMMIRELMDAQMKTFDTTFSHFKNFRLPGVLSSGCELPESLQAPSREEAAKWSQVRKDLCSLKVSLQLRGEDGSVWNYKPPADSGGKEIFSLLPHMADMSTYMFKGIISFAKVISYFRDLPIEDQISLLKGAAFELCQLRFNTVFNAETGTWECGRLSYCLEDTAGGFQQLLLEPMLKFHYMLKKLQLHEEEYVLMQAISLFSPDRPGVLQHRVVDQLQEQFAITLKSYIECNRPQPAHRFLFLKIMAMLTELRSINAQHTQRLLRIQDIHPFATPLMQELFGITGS
Method: The assay was performed by Eurofins Cerep (Celle-Lévescault, France). […] Compound binding was calculated as % inhibition of the binding of the radioactively labeled PXR ligand [3H]SR12813 to recombinant human PXR, as described previously.

TLK2 = target: T2, TLK2 (Homo sapiens, UniProt Q86UE8); test: Kinase profiling; assay type: biochemical
T2 construct: purchased ProQinase (Freiburg, Germany)
T2 sequence (Q86UE8 whole entry): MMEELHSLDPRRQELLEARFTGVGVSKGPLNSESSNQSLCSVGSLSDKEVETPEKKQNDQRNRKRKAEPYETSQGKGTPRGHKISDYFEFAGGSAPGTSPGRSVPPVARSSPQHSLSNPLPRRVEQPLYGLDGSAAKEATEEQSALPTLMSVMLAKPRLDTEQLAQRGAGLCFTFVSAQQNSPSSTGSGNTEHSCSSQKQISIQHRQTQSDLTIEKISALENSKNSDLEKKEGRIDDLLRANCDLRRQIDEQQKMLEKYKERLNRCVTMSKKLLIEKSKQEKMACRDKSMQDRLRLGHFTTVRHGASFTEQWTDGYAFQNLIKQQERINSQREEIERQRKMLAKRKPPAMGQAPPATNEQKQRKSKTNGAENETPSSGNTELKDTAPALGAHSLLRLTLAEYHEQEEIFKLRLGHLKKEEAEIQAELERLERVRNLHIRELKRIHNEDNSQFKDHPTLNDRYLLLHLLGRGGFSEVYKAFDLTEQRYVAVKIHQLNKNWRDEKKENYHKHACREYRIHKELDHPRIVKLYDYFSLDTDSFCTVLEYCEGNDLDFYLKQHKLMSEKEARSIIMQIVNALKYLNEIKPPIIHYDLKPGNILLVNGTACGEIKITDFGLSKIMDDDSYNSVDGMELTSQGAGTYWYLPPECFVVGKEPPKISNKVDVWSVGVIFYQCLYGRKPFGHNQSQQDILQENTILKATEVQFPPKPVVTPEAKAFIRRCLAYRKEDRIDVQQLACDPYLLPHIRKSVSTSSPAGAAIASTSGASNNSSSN
Method: (§1) The analysis was performed by ProQinase (Freiburg, Germany).

PAK3 = target: T3, PAK3 (Homo sapiens, UniProt O75914); test: Kinase profiling; assay type: biochemical
T3 construct: purchased ProQinase (Freiburg, Germany)
T3 sequence (O75914 whole entry): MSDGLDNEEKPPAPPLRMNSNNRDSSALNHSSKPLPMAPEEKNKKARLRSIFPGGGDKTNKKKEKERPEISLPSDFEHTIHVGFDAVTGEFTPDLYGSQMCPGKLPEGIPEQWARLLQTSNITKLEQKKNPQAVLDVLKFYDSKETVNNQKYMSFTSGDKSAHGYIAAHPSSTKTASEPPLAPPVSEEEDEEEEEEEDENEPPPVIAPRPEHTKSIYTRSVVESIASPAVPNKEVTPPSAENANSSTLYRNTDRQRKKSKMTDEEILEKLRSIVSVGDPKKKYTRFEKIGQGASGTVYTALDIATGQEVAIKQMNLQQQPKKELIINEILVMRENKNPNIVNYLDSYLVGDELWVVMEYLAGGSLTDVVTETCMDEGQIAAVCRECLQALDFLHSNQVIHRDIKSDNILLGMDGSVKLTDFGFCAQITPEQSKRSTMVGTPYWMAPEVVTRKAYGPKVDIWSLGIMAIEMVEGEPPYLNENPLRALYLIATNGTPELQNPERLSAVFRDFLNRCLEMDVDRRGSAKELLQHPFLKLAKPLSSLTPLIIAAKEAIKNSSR
Method: as §1

CLK4 = target: T4, CLK4 (Homo sapiens, UniProt Q9HAZ1); test: Kinase profiling; assay type: biochemical
T4 construct: purchased ProQinase (Freiburg, Germany)
T4 sequence (Q9HAZ1 whole entry): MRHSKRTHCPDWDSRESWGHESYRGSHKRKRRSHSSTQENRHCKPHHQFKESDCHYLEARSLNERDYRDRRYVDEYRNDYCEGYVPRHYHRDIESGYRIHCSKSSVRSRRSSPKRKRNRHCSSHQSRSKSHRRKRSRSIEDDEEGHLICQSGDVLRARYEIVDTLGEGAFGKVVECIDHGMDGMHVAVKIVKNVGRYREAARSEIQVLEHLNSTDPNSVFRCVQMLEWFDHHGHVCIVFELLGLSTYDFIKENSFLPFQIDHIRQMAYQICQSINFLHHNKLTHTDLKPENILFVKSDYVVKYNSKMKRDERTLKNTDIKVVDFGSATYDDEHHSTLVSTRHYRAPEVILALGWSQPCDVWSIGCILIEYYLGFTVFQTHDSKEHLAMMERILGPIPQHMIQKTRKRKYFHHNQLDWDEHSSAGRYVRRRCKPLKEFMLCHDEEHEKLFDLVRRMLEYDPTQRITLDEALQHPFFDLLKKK
Method: as §1

HRI = target: T5, HRI (Homo sapiens, UniProt Q9BQI3); test: Kinase profiling; assay type: biochemical
T5 construct: purchased ProQinase (Freiburg, Germany)
T5 sequence (Q9BQI3 whole entry): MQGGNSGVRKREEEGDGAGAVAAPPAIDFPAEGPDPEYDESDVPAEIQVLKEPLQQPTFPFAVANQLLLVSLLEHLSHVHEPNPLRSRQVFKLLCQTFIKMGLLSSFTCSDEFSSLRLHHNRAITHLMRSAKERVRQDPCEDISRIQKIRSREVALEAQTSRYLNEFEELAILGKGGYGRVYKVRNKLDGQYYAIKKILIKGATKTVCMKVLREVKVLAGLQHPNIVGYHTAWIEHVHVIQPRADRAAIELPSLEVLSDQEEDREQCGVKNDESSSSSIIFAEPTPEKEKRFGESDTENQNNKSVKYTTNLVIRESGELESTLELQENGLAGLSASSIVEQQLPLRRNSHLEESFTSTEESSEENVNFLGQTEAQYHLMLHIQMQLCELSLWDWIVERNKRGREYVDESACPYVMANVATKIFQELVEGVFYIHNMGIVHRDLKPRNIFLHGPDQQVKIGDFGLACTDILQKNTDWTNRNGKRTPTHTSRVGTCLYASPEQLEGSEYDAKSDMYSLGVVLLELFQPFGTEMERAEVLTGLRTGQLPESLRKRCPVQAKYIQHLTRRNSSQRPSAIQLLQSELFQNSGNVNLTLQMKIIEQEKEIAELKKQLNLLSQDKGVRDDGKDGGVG
Method: as §1

FYN = target: T6, FYN (Homo sapiens, UniProt P06241); test: Kinase profiling; assay type: biochemical
T6 construct: purchased ProQinase (Freiburg, Germany)
T6 sequence (P06241 whole entry): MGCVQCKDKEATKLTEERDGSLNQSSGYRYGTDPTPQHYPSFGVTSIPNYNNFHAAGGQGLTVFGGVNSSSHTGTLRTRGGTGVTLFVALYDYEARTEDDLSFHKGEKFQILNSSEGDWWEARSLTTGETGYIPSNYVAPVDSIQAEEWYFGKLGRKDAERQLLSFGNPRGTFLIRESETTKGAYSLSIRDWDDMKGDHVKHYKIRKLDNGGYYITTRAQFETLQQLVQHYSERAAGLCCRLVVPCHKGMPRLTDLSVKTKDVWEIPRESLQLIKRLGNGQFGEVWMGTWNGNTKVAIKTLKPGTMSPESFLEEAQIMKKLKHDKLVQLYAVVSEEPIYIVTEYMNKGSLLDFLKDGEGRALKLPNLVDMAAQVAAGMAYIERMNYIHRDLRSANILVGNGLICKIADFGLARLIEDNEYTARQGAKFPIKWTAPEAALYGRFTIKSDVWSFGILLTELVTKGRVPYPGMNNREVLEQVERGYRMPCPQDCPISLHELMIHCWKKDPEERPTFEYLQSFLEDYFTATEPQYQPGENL
Method: as §1

CAR3 = target: T7, CAR3 (Homo sapiens, UniProt Q14994, DEL233-236); test: Nuclear receptor selectivity reporter assay, CAR3; assay type: cell-based; conditions: for impairment of ligand-induced activation of CAR3 by CITCO: HepG2, 10 µM compound + 10 µM CITCO
T7 construct: expressed in transfected cells; host or cells: HepG2
T7 sequence (Q14994 with tags, fused parts or gaps isoform Q14994-8 DEL233-236): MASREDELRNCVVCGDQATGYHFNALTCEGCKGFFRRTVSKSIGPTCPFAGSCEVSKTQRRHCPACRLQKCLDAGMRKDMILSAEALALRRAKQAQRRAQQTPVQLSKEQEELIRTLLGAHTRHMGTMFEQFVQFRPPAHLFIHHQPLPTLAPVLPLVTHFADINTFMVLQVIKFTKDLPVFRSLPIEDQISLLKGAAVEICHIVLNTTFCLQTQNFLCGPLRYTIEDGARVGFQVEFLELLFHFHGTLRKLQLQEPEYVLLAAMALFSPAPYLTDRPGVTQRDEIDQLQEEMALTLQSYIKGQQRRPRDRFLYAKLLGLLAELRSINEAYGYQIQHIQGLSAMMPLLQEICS
T7 sequence (P19793 1-462 partner): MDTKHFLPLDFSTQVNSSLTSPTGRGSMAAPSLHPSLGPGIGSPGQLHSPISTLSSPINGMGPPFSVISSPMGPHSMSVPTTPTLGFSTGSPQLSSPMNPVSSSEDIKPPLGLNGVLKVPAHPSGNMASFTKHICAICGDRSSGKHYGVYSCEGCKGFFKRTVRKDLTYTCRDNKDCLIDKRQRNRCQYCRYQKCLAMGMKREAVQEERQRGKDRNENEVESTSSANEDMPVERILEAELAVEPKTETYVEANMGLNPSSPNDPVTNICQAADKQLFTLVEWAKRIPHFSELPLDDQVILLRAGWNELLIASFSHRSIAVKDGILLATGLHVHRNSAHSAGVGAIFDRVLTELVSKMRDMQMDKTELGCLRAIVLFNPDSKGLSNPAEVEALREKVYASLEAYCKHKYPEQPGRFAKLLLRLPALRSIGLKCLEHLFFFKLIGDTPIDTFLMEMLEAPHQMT
Method: (§2) For testing nuclear receptor selectivity and LBP-filled PXR mutant activation, transient batch transfection was conducted as above, but with HepG2 cells and the following plasmids, with amounts per well of 0.23–0.27 µg pGL4-CYP3A4(-7830Δ7208-364) or pGL3(DR3)3Tk (as reporter for VDR), 0.01 µg pMetLuc2control, and 0.03 µg either CAR1, CAR3, VDR, or PXR(S208W/S247W/C284W) expression plasmids. In addition, 0.03 µg RXRα expression plasmid was added to CAR3 transfections. Metridia luciferase activity was measured from 10 µL of medium supernatant after adding 100 µL Renilla luciferase assay solution.
Figure 6 Selectivity of novel PXR ligands within the NR1I group of nuclear receptors. HepG2 cells were transiently transfected with CYP3A4 reporter and expression plasmids encoding (A) CAR1 or (B) CAR3, or (C) direct repeat (DR3)3 reporter and expression plasmid encoding VDR. Cells were treated with 0.2% DMSO or 10 µM chemicals as indicated. 1α,25(OH)2D3 was used at 1 µM.

PXR(S208W/S247W/C284W) = target: T8, PXR(S208W/S247W/C284W) (Homo sapiens, UniProt O75469, C284W/S208W/S247W); test: LBP-filled PXR mutant CYP3A4 reporter assay; assay type: cell-based; conditions: HepG2, 10 µM, 24 h
T8 construct: expressed in transfected cells; host or cells: HepG2
T8 sequence (O75469 whole entry S208W/S247W/C284W): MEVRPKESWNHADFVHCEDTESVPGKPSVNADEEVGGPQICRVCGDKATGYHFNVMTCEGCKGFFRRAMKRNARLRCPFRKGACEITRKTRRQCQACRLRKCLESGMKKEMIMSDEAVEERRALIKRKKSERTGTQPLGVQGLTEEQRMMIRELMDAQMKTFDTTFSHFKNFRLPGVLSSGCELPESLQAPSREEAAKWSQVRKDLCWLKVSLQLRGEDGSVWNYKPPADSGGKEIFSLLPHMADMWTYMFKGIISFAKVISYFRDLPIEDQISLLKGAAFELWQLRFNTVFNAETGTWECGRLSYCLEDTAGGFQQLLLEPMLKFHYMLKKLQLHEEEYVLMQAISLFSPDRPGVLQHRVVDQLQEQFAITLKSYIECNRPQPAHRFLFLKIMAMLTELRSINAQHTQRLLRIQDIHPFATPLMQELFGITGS
Method: as §2
Figure 5 PXR binding of phenylaminobenzosuberones is indicated by cellular PXR LBD assembly assay and inhibition of LBP-filled PXR mutant (A) Novel compounds induce PXR LBD assembly. […] (B) Effects of novel compounds on LBP-filled PXR mutant. HepG2 cells were transiently transfected with CYP3A4 reporter and expression plasmid encoding PXR(S208W/S247W/C284W) and treated as described above. […] Statistically significant differences are illustrated with asterisks. ** p ˂ 0.01, compared to respective treatments with DMSO analyzed by repeated measures one-way ANOVA with Dunnett’s multiple comparisons test.

SMILES	IC50 (PXR) [µM]	Residual activity (TLK2; 1.0E-05 M)	Residual activity (TLK2; 1.0E-06 M)	Residual activity (PAK3; 1.0E-05 M)	Residual activity (PAK3; 1.0E-06 M)	Residual activity (CLK4; 1.0E-05 M)	Residual activity (CLK4; 1.0E-06 M)	Residual activity (HRI; 1.0E-05 M)	Residual activity (HRI; 1.0E-06 M)	Residual activity (FYN; 1.0E-05 M)	Residual activity (FYN; 1.0E-06 M)	activation of CAR3, % of the effect of CITCO (CAR3; HepG2, 10 µM) [%]	activation of CAR3 on their own (CAR3; HepG2, 10 µM)	impairment of ligand-induced activation of CAR3 by CITCO (CAR3)	suppression of constitutive activity of LBP-filled PXR mutant (PXR(S208W/S247W/C284W))
O=C(Nc1ccc(F)c(Nc2ccc3c(c2)CCCCC3=O)c1)c1cccc(F)c1 [Compound 109]	2.9	207 % of control	120 % of control	79 % of control	92 % of control	108 % of control	105 % of control	129 % of control	98 % of control	83 % of control	104 % of control	12	–	–	–
Cc1ccc(NC(=O)Cc2ccccc2)cc1Nc1ccc2c(c1)CCCCC2=O [Compound 73]	–	–	–	–	–	–	–	–	–	–	–	–	Neither CAR3 nor VDR were activated	46%	40%
O=C(Cc1ccccc1)Nc1ccc(F)c(Nc2ccc3c(c2)CCCCC3=O)c1 [Compound 100]	4.5	162 % of control	135 % of control	74 % of control	88 % of control	98 % of control	103 % of control	123 % of control	120 % of control	55 % of control	90 % of control	–	Neither CAR3 nor VDR were activated	no respective effects	did not affect constitutive activity of the PXR mutant
